The values below are quoted from earlier work in US8394428B1, “Formulations and methods for preventing eyebrow hair loss” (RMV Trademarks, LLC, priority 2010, dated 2013).

This series relates to hair loss in human scalp. Conditions: topical application, after administration of cyclophosphamide.

As to `C=C1/C(=C\C=C2/CCC[C@]3(C)[C@@H]([C@H](C)CCCC(C)(C)O)CC[C@@H]23)C[C@@H](O)C[C@@H]1O` [1,25-dihydroxyvitamin D3], the “Prevention or retardation of hair loss” value is on record as “failed to prevent or retard hair loss”.
